| Structure (SMILES) | melting point |
| --- | --- |
| O=S(=O)(Nc1ccc2c(OCc3ccc(-c4ccc(F)cc4)cc3F)cccc2c1)C(F)(F)F [Example 7, N-[5-(3,4′-Difluoro-biphenyl-4-ylmethoxy)-naphthalen-2-yl]-C,C,C-trifluoro-methanesulfonamide] | 134 to 136 °C |
| COC1(F)C=CC(c2cccc(COc3cccc4cc(NS(=O)(=O)C(F)(F)F)ccc34)c2)=CC1 (centres unmarked) [Example 12, N-[5-(4′-Fluoro-4′-methoxy-biphenyl-3-ylmethoxy)-naphthalen-2-yl]-C,C,C-trifluoro-methanesulfonamide] | 125 to 127 °C |
| O=S(=O)(Nc1ccc2c(OCc3ccccc3-c3ccccc3)cccc2c1)C(F)(F)F [Example 19, N-[5-(Biphenyl-2-ylmethoxy)-naphthalen-2-yl]-C,C,C-trifluoromethanesulfonamide] | 119 to 121 °C |
| COc1ccc(-c2ccc(Cl)cc2)cc1COc1cccc2cc(NS(=O)(=O)C(F)(F)F)ccc12 [Example 21, N-[5-(4′-Chloro-4-methoxy-biphenyl-3-ylmethoxy)-naphthalen-2-yl]-C,C,C-trifluoromethanesulfonamide] | 155 to 157 °C |
| O=S(=O)(Nc1ccc2c(OCc3ccc(-c4ccc(Cl)cc4)cc3)cccc2c1)C(F)(F)F [Example 22, N-[5-(4′-Chloro-biphenyl-4-ylmethoxy)-naphthalen-2-yl]-C,C,C-trifluoromethanesulfonamide] | 131 to 133 °C |
| Cc1c(COc2cccc3cc(NS(=O)(=O)C(F)(F)F)ccc23)cccc1-c1ccccc1 [Example 23, C,C,C-Trifluoro-N-[5-(2-methyl-biphenyl-3-ylmethoxy)-naphthalen-2-yl]-methanesulfonamide] | 124 to 125 °C |
| O=S(=O)(Nc1ccc2c(OCc3ccc(-c4ccccn4)cc3)cccc2c1)C(F)(F)F [Example 24, C,C,C-Trifluoro-N-[5-(4-pyridin-2-yl-benzyloxy)-naphthalen-2-yl]-methanesulfonamide] | 119 to 120 °C |
| COc1ccc(-c2cc(COc3cccc4cc(NS(=O)(=O)C(F)(F)F)ccc34)ccc2F)cc1 [Example 26, C,C,C-Trifluoro-N-[5-(6-fluoro-4′-methoxy-biphenyl-3-ylmethoxy)-naphthalen-2-yl]-methanesulfonamide] | 132 to 133 °C |
| O=S(=O)(Nc1ccc2c(OCc3ccc(-c4ccccc4)cc3Cl)cccc2c1)C(F)(F)F [Example 29, N-[5-(3-Chloro-biphenyl-4-ylmethoxy)-naphthalen-2-yl]-C,C,C-trifluoro-methanesulfonamide] | 131 to 134 °C |
| O=S(=O)(Nc1ccc2c(OCc3cccc(-c4ccc(C(F)(F)F)cc4)n3)cccc2c1)C(F)(F)F [Example 43, C,C,C-Trifluoro-N-{5-[6-(4-trifluoromethyl-phenyl)-pyridin-2-ylmethoxy]-naphthalen-2-yl}-methanesulfonamide] | 180 to 182 °C |
| O=S(=O)(Nc1ccc2c(OCc3csc(-c4ccccc4)n3)cccc2c1)C(F)(F)F [Example 51, C,C,C-Trifluoro-N-[5-(2-phenyl-thiazol-4-ylmethoxy)-naphthalen-2-yl]-methanesulfonamide] | 89 to 99 °C |
| O=S(=O)(Nc1ccc2c(OCc3csc(-c4ccc(OC(F)(F)F)cc4)n3)cccc2c1)C(F)(F)F [Example 55, C,C,C-Trifluoro-N-{5-[2-(4-trifluoromethoxy-phenyl)-thiazol-4-yl-methoxy]-naphthalen-2-yl}-methanesulfonamide] | 131 to 132 °C |
| O=S(=O)(Nc1ccc2c(OCc3nc(-c4ccc(F)cc4)sc3Br)cccc2c1)C(F)(F)F [Example 56, N-{5-[5-Bromo-2-(4-fluoro-phenyl)-thiazol-4-ylmethoxy]-naphthalen-2-yl}-C,C,C-trifluoromethanesulfonamide] | 139 to 140 °C |
| N#Cc1ccc(C2(COc3cccc4cc(NS(=O)(=O)C(F)(F)F)ccc34)N=CNO2)cc1 (centres unmarked) [Example 61, N-{5-[5-(4-cyano-phenyl)-[1,2,4]-oxadiazol-5-ylmethoxy)-naphthalen-2-yl}-C,C,C-trifluoro-methanesulfonamide] | 184 to 185 °C |
| O=S(=O)(Nc1ccc2c(OCc3nc(-c4cccc(C(F)(F)F)c4)no3)cccc2c1)C(F)(F)F [Example 66, C,C,C-Trifluoro-N-{5-[3-(3-trifluoromethyl-phenyl)-[1,2,4]oxadiazol-5-ylmethoxy]-naphthalen-2-yl}-methanesulfonamide] | 155 to 156 °C |
| NC(=O)Nc1ccc2c(OCc3ccccc3-c3ccccc3)cccc2c1 [Example 74, [5-(Biphenyl-2-ylmethoxy)-naphthalen-2-yl]-urea] | 159 to 161 °C |
| O=S(=O)(Nc1ccc2c(OCc3nc4ccccc4s3)cccc2c1)C(F)(F)F [Example 78, N-[5-(Benzothiazol-2-ylmethoxy)-naphthalen-2-yl]-C,C,C-trifluoro-methanesulfonamide] | 190 to 192 °C |
| Cc1oc(-c2ccccc2)nc1COc1cccc2cc(NS(=O)(=O)C(F)(F)F)ccc12 [Example 79, N-[5-(5-methyl-2-phenyl-oxazol-4-ylmethoxy)naphthalen-2-yl]C,C,C-trifluoromethanesulfonamide] | 192 to 194 °C |

The next lines start with the values.

| melting point | Structure (SMILES) |
| --- | --- |
| 162 to 164 °C | CC(C)(C)c1ccc(-c2ccc(COc3cccc4cc(NS(=O)(=O)C(F)(F)F)ccc34)c(F)c2)cc1 [Example 6, N-[5-(4′-tert-Butyl-3-fluoro-biphenyl-4-ylmethoxy)-naphthalen-2-yl]-C,C,C-trifluoro-methanesulfonamide] |
| 151 to 153 °C | O=S(=O)(Nc1ccc2c(OCc3ccc(-c4ccc(Cl)cc4)cc3F)cccc2c1)C(F)(F)F [Example 8, N-[5-(4′-Chloro-3-fluoro-biphenyl-4-ylmethoxy)-naphthalen-2-yl]-C,C,C-trifluoro-methanesulfonamide] |
| 123 to 125 °C | COc1ccc(-c2cccc(COc3cccc4cc(NS(=O)(=O)C(F)(F)F)ccc34)c2)cc1 [Example 20, C,C,C-Trifluoro-N-[5-(4′-methoxy-biphenyl-3-ylmethoxy)-naphthalen-2-yl]-methanesulfonamide] |
| 173 to 174 °C | O=S(=O)(Nc1ccc2c(OCc3cccc(-c4ccc(F)cc4)n3)cccc2c1)C(F)(F)F [Example 42, C,C,C-Trifluoro-N-{5-[6-(4-fluoro-phenyl)-pyridin-2-ylmethoxy]-naphthalen-2-yl}-methanesulfonamide] |
| 151 to 153 °C | O=S(=O)(Nc1ccc2c(OCc3csc(-c4ccc(Cl)cc4)n3)cccc2c1)C(F)(F)F [Example 44, N-{5-[2-(4-Chloro-phenyl)-thiazol-4-ylmethoxy]-naphthalen-2-yl}-C,C,C-trifluoro-methanesulfonamide] |
| 170 to 173 °C | O=S(=O)(Nc1ccc2c(OCc3csc(-c4ccc(F)cc4)n3)cccc2c1)C(F)(F)F [Example 45, C,C,C-Trifluoro-N-{5-[2-(4-fluoro-phenyl)-thiazol-4-ylmethoxy]-naphthalen-2-yl}-methanesulfonamide] |
| 174 to 175 °C | CC(C)(C)c1ccc(-c2nc(COc3cccc4cc(NS(=O)(=O)C(F)(F)F)ccc34)cs2)cc1 [Example 47, N-{5-[2-(4-tert-Butyl-phenyl)-thiazol-4-ylmethoxy]-naphthalen-2-yl}-C,C,C-trifluoro-methanesulfonamide] |
| 183 to 185 °C | O=S(=O)(Nc1ccc2c(OCc3csc(C4COc5ccccc5O4)n3)cccc2c1)C(F)(F)F (centres unmarked) [Example 50, N-{5-[2-(2,3-Dihydro-benzo[1,4]dioxin-2-yl)-thiazol-4-ylmethoxy]-naphthalen-2-yl}-C,C,C-trifluoro-methanesulfonamide] |
| 128 to 129 °C | O=S(=O)(Nc1ccc2c(OCc3csc(-c4ccccc4Cl)n3)cccc2c1)C(F)(F)F [Example 54, N-{5-[2-(2-Chloro-phenyl)-thiazol-4-ylmethoxy]-naphthalen-2-yl}-C,C,C-trifluoromethanesulfonamide] |
| 154 to 155 °C | CC(C)(C)c1ccc(C2(COc3cccc4cc(NS(=O)(=O)C(F)(F)F)ccc34)N=CNO2)cc1 (centres unmarked) [Example 59, N-{5-[5-(4-tert-Butyl-phenyl)-[1,2,4]-oxadiazol-5-ylmethoxy)-naphthalen-2-yl}-C,C,C-trifluoro-methanesulfonamide] |
| 60 to 62 °C | O=S(=O)(Nc1ccc2c(OCc3noc(C45CC6CC(CC(C6)C4)C5)n3)cccc2c1)C(F)(F)F [Example 60, N-[5-(5-Adamantan-1-yl-[1,2,4]oxadiazol-3-ylmethoxy)-naphthalen-2-yl]-C,C,C-trifluoro-methanesulfonamide] |
| 138 to 140 °C | COc1cccc(C2(COc3cccc4cc(NS(=O)(=O)C(F)(F)F)ccc34)N=CNO2)c1 (centres unmarked) [Example 62, N-{5-[5-(3-methoxy-phenyl)-[1,2,4]-oxadiazol-5-ylmethoxy)-naphthalen-2-yl}-C,C,C-trifluoro-methanesulfonamide] |
| 146 to 148 °C | COc1ccc(C2(COc3cccc4cc(NS(=O)(=O)C(F)(F)F)ccc34)N=CNO2)cc1 (centres unmarked) [Example 64, N-{5-[5-(4-methoxy-phenyl)-[1,2,4]-oxadiazol-5-ylmethoxy)-naphthalen-2-yl}-C,C,C-trifluoro-methanesulfonamide] |
| 131 to 132 °C | O=S(=O)(Nc1ccc2c(OCc3nc(-c4ccc(F)cc4)no3)cccc2c1)C(F)(F)F [Example 65, C,C,C-Trifluoro-N-{5-[3-(4-fluoro-phenyl)-[1,2,4]oxadiazol-5-yl-methoxy]-naphthalen-2-yl}-methanesulfonamide] |
| 200 °C (dec.) | COc1ccc(-c2ccc(Cl)cc2)cc1COc1cccc2cc(NC(N)=O)ccc12 [Example 76, [5-(4′-Chloro-4-methoxy-biphenyl-3-ylmethoxy)-naphthalen-2-yl]-urea] |
| 182 °C (dec.) | NC(=O)Nc1ccc2c(OCc3ccc(-c4ccc(Cl)cc4)cc3)cccc2c1 [Example 77, [5-(4′-Chloro-biphenyl-4-ylmethoxy)-naphthalen-2-yl]-urea] |
| 195 to 197 °C | O=S(=O)(Nc1ccc2c(OCc3coc(-c4ccccc4)n3)cccc2c1)C(F)(F)F [Example 80, N-[5-(2-phenyl-oxazol-4-ylmethoxy)naphthalen-2-yl]C,C,C-trifluoromethanesulfonamide] |

From US6933322B2, “Substituted naphthylenes for the treatment of non-insulin dependent diabetes mellitus” (Wyeth, priority 2002, dated 2005)
